The numbers were not newly measured in patent US20080292726A1, “[…] COMPOSITIONS AND METHODS OF THEIR USE” (priority 2007, published 2008), which cites them from elsewhere.

The series relates to mouse model of uveitis. The note with it: systemically administered, subcutaneously injected into the neck.

On to `O=[N+]([O-])[O-].O=[N+]([O-])[O-].O=[N+]([O-])[O-].[Ga+3]` [gallium nitrate], for which the “efficacy in a mouse model of uveitis” value is “effective”.
